Laboratory results reported in ChEMBL document CHEMBL5113485, “Distal kinetic deuterium isotope effect: Phenyl ring deuteration attenuates N-demethylation of Lu AF35700” (Bioorg Med Chem Lett, 2022).

Columns and labels:
Cytochrome P450 2C19 [1] = target: T1, Cytochrome P450 2C19 (Homo sapiens, UniProt P33261); assay: Drug metabolism assessed as recombinant human liver CYP2C19-mediated formation of d5-desmethyl-zicronapine at 10 uM measured after 15 to 180 mins in presence of zicronapine by LC-MS/MS analysis; format: ADME; settings: recombinant enzyme, time 15-180 min
Cytochrome P450 3A4 [2] = target: T2, Cytochrome P450 3A4 (Homo sapiens, UniProt P08684); assay: Drug metabolism assessed as recombinant human liver CYP3A4-mediated formation of d5-desmethyl-zicronapine at 10 uM measured after 15 to 180 mins in presence of zicronapine by LC-MS/MS analysis; format: ADME; settings: recombinant enzyme, time 15-180 min
[3] = target: 5-hydroxytryptamine receptor 1A (Homo sapiens, UniProt P08908); assay: Displacement of [3H]8-OH-DPAT from recombinant human 5-HT1A receptor measured after 60 mins by scintillation counting analysis
[4] = Drug metabolism in human liver microsomes assessed as formation of desmethyl-zicronapine at 10 uM measured after 15 to 180 mins in presence of NADPH regenerating system by LC-MS/MS analysis; format: ADME, Microsome; settings: time 15-180 min
[5] = Drug metabolism in human liver microsomes assessed as formation of d5-desmethyl-zicronapine at 10 uM measured after 15 to 180 mins in presence of NADPH regenerating system by LC-MS/MS analysis; format: ADME, Microsome; settings: time 15-180 min
[6] = target: 5-hydroxytryptamine receptor 1B (Rattus norvegicus, UniProt P28564); assay: Displacement of [125I]CYP from rat brain 5HT1B receptor measured after 120 mins by scintillation counting analysis
[7] = target: 5-hydroxytryptamine receptor 2B (Homo sapiens, UniProt P41595); assay: Displacement of [125I](+/-)DOI from recombinant human 5-HT2B receptor measured after 60 mins by scintillation counting analysis
[8] = target: 5-hydroxytryptamine receptor 2C (Homo sapiens, UniProt P28335); assay: Displacement of [125I](+/-)DOI from recombinant human 5-HT2C receptor measured after 60 mins by scintillation counting analysis
[9] = target: 5-hydroxytryptamine receptor 7 (Homo sapiens, UniProt P34969); assay: Displacement of [3H]LSD from recombinant human 5-HT7 receptor measured after 120 mins by scintillation counting analysis
D(3) dopamine receptor = D(3) dopamine receptor (Homo sapiens, UniProt P35462); assay: Displacement of [3H]methyl-spiperone from recombinant human D3 receptor measured after 60 mins by scintillation counting analysis
D(4) dopamine receptor = D(4) dopamine receptor (Homo sapiens, UniProt P21917); assay: Displacement of [3H]methyl-spiperone from recombinant human D4.4 receptor measured after 60 mins by scintillation counting analysis
D(1B) dopamine receptor = D(1B) dopamine receptor (Homo sapiens, UniProt P21918); assay: Displacement of [3H]SCH 23390 from recombinant human D5 receptor measured after 60 mins by scintillation counting analysis
[10] = target: Alpha-1A adrenergic receptor (Homo sapiens, UniProt P35348); assay: Displacement of [3H]prazosin from recombinant human alpha1A receptor measured after 60 mins by scintillation counting analysis
[11] = target: Alpha-1B adrenergic receptor (Homo sapiens, UniProt P35368); assay: Displacement of [3H]prazosin from recombinant human alpha1B receptor measured after 60 mins by scintillation counting analysis
[12] = target: Alpha-1D adrenergic receptor (Homo sapiens, UniProt P25100); assay: Displacement of [3H]prazosin from recombinant human alpha1D receptor measured after 60 mins by scintillation counting analysis
[13] = target: Alpha-2A adrenergic receptor (Homo sapiens, UniProt P08913); assay: Displacement of [3H]RX 821002 from recombinant human alpha2A receptor measured after 60 mins by scintillation counting analysis
[14] = target: Alpha-2B adrenergic receptor (Homo sapiens, UniProt P18089); assay: Displacement of [3H]RX 821002 from recombinant human alpha2B receptor measured after 60 mins by scintillation counting analysis
[15] = target: Alpha-2C adrenergic receptor (Homo sapiens, UniProt P18825); assay: Displacement of [3H]RX 821002 from recombinant human alpha2C receptor measured after 60 mins by scintillation counting analysis
[16] = target: Sodium-dependent dopamine transporter (Homo sapiens, UniProt Q01959); assay: Displacement of [3H]BTCP from recombinant human DAT measured after 120 mins by scintillation counting analysis
Histamine H1 receptor = Histamine H1 receptor (Homo sapiens, UniProt P35367); assay: Displacement of [3H]pyrilamine from recombinant human H1 receptor measured after 60 mins by scintillation counting analysis
Cytochrome P450 2C19 [17] = target: T1, Cytochrome P450 2C19; assay: Drug metabolism assessed as recombinant human liver CYP2C19-mediated formation of desmethyl-zicronapine at 10 uM measured after 15 to 180 mins in presence of d5-zicronapine by LC-MS/MS analysis; format: ADME; settings: recombinant enzyme, time 15-180 min
Cytochrome P450 2C19 [18] = target: T1, Cytochrome P450 2C19; assay: Drug metabolism assessed as recombinant human liver CYP2C19-mediated formation of desmethyl-zicronapine at 10 uM measured after 15 to 180 mins in presence of Lu AF35700 by LC-MS/MS analysis; format: ADME; settings: recombinant enzyme, time 15-180 min
Cytochrome P450 2C19 [19] = target: T1, Cytochrome P450 2C19; assay: Drug metabolism assessed as recombinant human liver CYP2C19-mediated formation of d5-desmethyl-zicronapine at 10 uM measured after 15 to 180 mins in presence of Lu AF35700 by LC-MS/MS analysis; format: ADME; settings: recombinant enzyme, time 15-180 min
Cytochrome P450 3A4 [20] = target: T2, Cytochrome P450 3A4; assay: Drug metabolism assessed as recombinant human liver CYP3A4-mediated formation of desmethyl-zicronapine at 10 uM measured after 15 to 180 mins in presence of d5-zicronapine by LC-MS/MS analysis; format: ADME; settings: recombinant enzyme, time 15-180 min
Cytochrome P450 3A4 [21] = target: T2, Cytochrome P450 3A4; assay: Drug metabolism assessed as recombinant human liver CYP3A4-mediated formation of desmethyl-zicronapine at 10 uM measured after 15 to 180 mins in presence of Lu AF35700 by LC-MS/MS analysis; format: ADME; settings: recombinant enzyme, time 15-180 min
Cytochrome P450 3A4 [22] = target: T2, Cytochrome P450 3A4; assay: Drug metabolism assessed as recombinant human liver CYP3A4-mediated formation of d5-desmethyl-zicronapine at 10 uM measured after 15 to 180 mins in presence of Lu AF35700 by LC-MS/MS analysis; format: ADME; settings: recombinant enzyme, time 15-180 min
[23] = target: 5-hydroxytryptamine receptor 2A (Homo sapiens, UniProt P28223); assay: Displacement of [125I](+/-)DOI from recombinant human 5-HT2A receptor measured after 60 mins by scintillation counting analysis
[24] = target: 5-hydroxytryptamine receptor 6 (Homo sapiens, UniProt P50406); assay: Displacement of [3H]LSD from recombinant human 5-HT6 receptor measured after 120 mins by scintillation counting analysis
D(1A) dopamine receptor = D(1A) dopamine receptor (Homo sapiens, UniProt P21728); assay: Displacement of [3H]SCH 23390 from recombinant human D1 receptor measured after 60 mins by scintillation counting analysis
D(2) dopamine receptor = D(2) dopamine receptor (Homo sapiens, UniProt P14416); assay: Displacement of [3H]7-OH-DPAT from recombinant human D2S receptor measured after 60 mins by scintillation counting analysis

T2 sequence (P08684 whole entry): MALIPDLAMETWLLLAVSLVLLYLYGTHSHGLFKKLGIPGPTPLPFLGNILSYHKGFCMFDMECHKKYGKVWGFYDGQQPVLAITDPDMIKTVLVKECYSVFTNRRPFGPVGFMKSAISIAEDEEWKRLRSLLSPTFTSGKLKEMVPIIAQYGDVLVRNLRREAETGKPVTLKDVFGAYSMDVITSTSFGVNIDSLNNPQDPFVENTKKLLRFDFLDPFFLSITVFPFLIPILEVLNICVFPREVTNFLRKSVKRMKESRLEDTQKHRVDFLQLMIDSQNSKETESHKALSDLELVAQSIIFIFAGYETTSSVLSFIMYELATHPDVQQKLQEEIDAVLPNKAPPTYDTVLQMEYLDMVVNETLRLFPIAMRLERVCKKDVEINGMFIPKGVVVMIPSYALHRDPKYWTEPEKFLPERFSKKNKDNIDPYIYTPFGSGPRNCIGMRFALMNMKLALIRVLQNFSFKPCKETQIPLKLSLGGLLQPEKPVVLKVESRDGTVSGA
T1 sequence (P33261 whole entry): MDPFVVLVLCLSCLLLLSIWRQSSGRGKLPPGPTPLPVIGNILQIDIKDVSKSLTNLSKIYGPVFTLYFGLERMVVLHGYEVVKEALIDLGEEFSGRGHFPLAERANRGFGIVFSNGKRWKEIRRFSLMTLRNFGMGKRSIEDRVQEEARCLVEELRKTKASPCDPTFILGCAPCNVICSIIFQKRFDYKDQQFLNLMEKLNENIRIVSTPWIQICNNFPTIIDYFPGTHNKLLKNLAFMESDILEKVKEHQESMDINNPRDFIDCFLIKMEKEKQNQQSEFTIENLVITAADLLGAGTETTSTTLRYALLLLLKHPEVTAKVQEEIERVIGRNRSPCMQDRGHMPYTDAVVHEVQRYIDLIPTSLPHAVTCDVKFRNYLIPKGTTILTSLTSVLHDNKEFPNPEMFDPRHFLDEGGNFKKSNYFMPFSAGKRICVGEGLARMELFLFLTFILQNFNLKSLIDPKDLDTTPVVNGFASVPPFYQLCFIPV
Chain of Alpha-2B adrenergic receptor (P18089 whole entry): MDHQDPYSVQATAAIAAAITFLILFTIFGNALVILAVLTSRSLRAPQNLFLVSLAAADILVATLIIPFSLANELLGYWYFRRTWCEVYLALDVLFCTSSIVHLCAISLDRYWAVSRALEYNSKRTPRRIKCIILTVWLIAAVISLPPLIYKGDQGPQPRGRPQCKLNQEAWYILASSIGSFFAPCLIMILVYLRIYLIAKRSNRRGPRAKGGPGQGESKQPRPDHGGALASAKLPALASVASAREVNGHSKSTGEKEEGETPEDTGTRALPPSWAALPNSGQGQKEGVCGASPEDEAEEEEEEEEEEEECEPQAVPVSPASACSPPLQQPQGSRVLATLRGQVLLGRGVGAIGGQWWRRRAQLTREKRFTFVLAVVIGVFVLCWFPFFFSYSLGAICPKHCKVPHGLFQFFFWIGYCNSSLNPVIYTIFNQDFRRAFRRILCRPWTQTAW
Chain of 5-hydroxytryptamine receptor 2C (P28335 whole entry): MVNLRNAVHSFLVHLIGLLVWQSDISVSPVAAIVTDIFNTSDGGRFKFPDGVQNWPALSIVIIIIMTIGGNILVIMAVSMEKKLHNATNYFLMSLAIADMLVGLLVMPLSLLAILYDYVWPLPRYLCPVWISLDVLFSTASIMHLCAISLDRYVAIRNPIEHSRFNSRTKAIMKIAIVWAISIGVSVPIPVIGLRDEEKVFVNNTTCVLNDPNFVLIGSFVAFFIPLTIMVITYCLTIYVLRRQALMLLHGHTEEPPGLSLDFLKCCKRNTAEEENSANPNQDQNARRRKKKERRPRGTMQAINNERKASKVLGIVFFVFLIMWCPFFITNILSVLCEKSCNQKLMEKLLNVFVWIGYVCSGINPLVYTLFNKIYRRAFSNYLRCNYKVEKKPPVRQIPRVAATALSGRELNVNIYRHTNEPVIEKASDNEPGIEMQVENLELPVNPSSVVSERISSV
Chain of D(4) dopamine receptor (P21917 whole entry): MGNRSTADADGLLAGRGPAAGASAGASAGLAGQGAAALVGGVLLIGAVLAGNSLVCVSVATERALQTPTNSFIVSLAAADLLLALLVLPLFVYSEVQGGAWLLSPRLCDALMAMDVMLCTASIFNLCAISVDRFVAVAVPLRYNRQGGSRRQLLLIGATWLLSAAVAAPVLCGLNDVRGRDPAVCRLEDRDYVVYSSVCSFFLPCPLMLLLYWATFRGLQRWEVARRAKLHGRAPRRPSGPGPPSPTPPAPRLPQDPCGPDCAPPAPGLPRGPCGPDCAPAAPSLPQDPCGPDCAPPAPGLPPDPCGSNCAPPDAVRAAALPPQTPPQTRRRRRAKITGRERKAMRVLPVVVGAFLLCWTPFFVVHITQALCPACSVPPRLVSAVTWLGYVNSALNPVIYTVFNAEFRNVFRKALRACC
Chain of 5-hydroxytryptamine receptor 1B (P28564 whole entry): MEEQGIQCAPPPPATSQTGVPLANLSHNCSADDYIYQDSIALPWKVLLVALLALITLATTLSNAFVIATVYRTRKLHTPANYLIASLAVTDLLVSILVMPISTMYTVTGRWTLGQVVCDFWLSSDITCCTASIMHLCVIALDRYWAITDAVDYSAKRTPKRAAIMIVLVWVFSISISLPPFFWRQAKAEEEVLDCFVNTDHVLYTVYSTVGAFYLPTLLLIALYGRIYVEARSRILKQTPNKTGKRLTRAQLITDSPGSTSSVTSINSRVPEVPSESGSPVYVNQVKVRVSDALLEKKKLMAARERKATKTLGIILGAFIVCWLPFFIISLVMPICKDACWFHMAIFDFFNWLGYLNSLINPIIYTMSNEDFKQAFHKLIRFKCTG
Chain of Alpha-1D adrenergic receptor (P25100 whole entry): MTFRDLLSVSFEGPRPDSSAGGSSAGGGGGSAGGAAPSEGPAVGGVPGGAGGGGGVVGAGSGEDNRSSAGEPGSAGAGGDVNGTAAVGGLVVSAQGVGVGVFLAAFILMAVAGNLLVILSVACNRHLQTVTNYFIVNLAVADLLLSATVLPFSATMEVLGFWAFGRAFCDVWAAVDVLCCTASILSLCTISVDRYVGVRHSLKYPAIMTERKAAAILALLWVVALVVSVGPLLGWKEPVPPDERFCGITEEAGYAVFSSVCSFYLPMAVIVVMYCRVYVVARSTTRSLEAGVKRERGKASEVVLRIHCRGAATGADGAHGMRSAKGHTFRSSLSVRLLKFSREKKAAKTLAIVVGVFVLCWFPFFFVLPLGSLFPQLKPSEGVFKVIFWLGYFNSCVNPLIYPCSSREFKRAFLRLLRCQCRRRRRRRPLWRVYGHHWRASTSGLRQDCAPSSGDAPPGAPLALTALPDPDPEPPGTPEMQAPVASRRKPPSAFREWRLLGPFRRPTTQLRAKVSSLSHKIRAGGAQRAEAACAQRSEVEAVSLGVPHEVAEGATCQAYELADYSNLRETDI
Chain of Alpha-1A adrenergic receptor (P35348 whole entry): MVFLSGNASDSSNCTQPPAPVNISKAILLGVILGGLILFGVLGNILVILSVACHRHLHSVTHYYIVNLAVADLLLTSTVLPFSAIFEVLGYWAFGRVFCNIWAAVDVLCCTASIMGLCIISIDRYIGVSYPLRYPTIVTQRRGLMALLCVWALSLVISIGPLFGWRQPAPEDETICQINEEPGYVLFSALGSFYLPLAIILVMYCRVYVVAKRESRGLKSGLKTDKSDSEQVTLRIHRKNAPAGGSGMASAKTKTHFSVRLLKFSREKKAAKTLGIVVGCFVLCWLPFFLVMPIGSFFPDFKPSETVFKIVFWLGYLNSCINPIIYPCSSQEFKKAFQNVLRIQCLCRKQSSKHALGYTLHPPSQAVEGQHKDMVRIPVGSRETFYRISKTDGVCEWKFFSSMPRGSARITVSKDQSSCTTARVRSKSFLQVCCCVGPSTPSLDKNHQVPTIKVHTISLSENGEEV
Chain of Alpha-1B adrenergic receptor (P35368 whole entry): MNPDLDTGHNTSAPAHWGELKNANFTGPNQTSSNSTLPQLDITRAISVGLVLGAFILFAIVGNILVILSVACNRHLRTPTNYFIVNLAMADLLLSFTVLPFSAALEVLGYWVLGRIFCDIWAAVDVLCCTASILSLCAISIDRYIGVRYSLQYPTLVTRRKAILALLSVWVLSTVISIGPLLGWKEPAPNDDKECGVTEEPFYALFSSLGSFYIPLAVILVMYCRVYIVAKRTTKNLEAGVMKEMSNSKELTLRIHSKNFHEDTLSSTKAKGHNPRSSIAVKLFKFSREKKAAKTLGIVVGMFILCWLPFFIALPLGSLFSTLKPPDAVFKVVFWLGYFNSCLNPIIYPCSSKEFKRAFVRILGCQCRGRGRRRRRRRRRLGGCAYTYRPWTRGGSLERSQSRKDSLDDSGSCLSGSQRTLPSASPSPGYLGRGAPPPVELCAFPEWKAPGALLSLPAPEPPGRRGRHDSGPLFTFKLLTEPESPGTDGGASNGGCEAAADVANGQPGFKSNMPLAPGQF
Chain of D(1B) dopamine receptor (P21918 whole entry): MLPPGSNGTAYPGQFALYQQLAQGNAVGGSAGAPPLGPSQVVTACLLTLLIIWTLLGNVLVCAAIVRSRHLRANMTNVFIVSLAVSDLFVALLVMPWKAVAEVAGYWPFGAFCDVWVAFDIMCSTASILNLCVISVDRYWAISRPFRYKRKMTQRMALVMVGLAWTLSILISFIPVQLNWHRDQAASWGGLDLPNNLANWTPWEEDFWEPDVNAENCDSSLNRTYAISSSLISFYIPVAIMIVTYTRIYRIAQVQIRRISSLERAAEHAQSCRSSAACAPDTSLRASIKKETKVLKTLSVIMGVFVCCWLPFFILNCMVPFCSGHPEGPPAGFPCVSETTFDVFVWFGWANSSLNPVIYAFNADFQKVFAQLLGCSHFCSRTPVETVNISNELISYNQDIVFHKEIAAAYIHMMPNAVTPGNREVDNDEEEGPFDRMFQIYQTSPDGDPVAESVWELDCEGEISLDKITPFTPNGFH

| Drug metabolism (Cytochrome P450 2C19 [1]) | Drug metabolism (Cytochrome P450 3A4 [2]) | Ki [3] [nM] | Drug metabolism [4] | Drug metabolism [5] | Ki [6] [nM] | Ki [7] [nM] | Ki [8] [nM] | Ki [9] [nM] | Ki (D(3) dopamine receptor) [nM] | Ki (D(4) dopamine receptor) [nM] | Ki (D(1B) dopamine receptor) [nM] | Ki [10] [nM] | Ki [11] [nM] | Ki [12] [nM] | Ki [13] [nM] | Ki [14] [nM] | Ki [15] [nM] | Ki [16] [nM] | Ki (Histamine H1 receptor) [nM] | Structure (SMILES) | also measured |
| --- | --- | --- | --- | --- | --- | --- | --- | --- | --- | --- | --- | --- | --- | --- | --- | --- | --- | --- | --- | --- | --- |
| Metabolite_Detected | Metabolite_Detected | 89 | Metabolite_Detected | Metabolite_Detected | 170 | 0.4 | 1.5 | 3.8 | 16 | 6.8 | 0.37 | 3.4 | 2.9 | 9.5 | 560 | 47 | 9.7 | 4200 | 4 | [2H]c1c([2H])c([2H])c([C@@H]2C[C@@H](N3CCN(C([2H])([2H])[2H])C(C)(C)C3)c3cc(Cl)ccc32)c([2H])c1[2H] | – |
| – | – | – | – | – | – | – | – | – | – | – | – | – | – | – | – | – | – | – | – | CN1CCN([C@@H]2C[C@@H](c3ccccc3)c3ccc(Cl)cc32)CC1(C)C [ZICRONAPINE] | Drug metabolism (Cytochrome P450 2C19 [17]): Metabolite_Detected; Drug metabolism (Cytochrome P450 2C19 [18]): Metabolite_Detected; Drug metabolism (Cytochrome P450 2C19 [19]): Metabolite_Detected; Drug metabolism (Cytochrome P450 3A4 [20]): Metabolite_Detected; Drug metabolism (Cytochrome P450 3A4 [21]): Metabolite_Detected; Drug metabolism (Cytochrome P450 3A4 [22]): Metabolite_Detected |
| Metabolite_Detected | Metabolite_Detected | – | Metabolite_Detected | Metabolite_Detected | – | – | – | – | – | – | – | – | – | – | – | – | – | – | – | [2H]c1c([2H])c([2H])c([C@@H]2C[C@@H](N3CCN(C)C(C)(C)C3)c3cc(Cl)ccc32)c([2H])c1[2H] | – |
| – | – | 420 | – | – | 660 | 0.39 | 1.1 | 11 | 59 | 11 | 0.67 | 13 | 11 | 35 | 2500 | 490 | 160 | 510 | 6.6 | [2H]c1c([2H])c([2H])c([C@@H]2C[C@@H](N3CCNC(C)(C)C3)c3cc(Cl)ccc32)c([2H])c1[2H] | Ki [23]: 0.84 nM; Ki [24]: 0.73 nM; Ki (D(1A) dopamine receptor): 1 nM; Ki (D(2) dopamine receptor): 11 nM |
